Results from patent US20240408169A1 (priority 2023, published 2024).
pIC50: −log10 of the molar value. Read-outs that look alike come from different tables or passages of the source. *1 amine or outer side, *2 acyl side, *3 side chain or, on linkers, in order; H or OH if unused. Where a SMILES comes first, the peptide text is derived from it. Bridges are numbered along the chain shown (N, C = ends). [ ]: non-standard residue; d: D form. The star is where a group is joined. X103 = CN1CCC(Oc2ccc(-c3ccc(Cl)cc3C[C@@H](C(=O)[*:2])N(C)[*:1])cc2)CC1; X95 = CN1CCCC[C@H]1c1ccc(-c2ccc(Cl)cc2C[C@@H](C(=O)[*:2])N(C)[*:1])cc1; X55 = CN([C@@H](Cc1cc(Cl)ccc1-c1cnn(CCN2CCOCC2)c1)C(=O)[*:2])[*:1]; X113 = Cc1cc(-c2ccc(Cl)cc2C[C@@H](C(=O)[*:2])N(C)[*:1])n(C)n1; NMehhhLys(Me) = CN([C@@H](CCCCCCCN(C)[*:3])C(=O)[*:2])[*:1]; X67 = Cc1c(-c2ccc(Cl)cc2C[C@@H](C(=O)[*:2])N(C)[*:1])cnn1C; cBuCO(3,3-F2-1-CF3) = O=C(C1(C(F)(F)F)CC(F)(F)C1)*; Pro(trans-4-F) = O=C(O)[C@@H]1C[C@@H](F)CN1; Gly(cPr) = N[C@H](C(=O)O)C1CC1

Columns and labels:
CyclinA2/CDK2 = target: T1, CyclinA2/CDK2 (Homo sapiens, UniProt P20248); assay: Fluorescence Polarization (FP) competitive binding assay, Cyclin A2/Cdk2;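 also: plates equilibrated two hours at room temperature before polarization reading, IC50 fitted from eight-concentration compound titration curves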
T1 construct: purchased CRELUX Protein Services

CyclinB1/CDK1 = target: T2, CyclinB1/CDK1 (Homo sapiens, UniProt P14635); assay: Fluorescence Polarization (FP) competitive binding assay, Cyclin B1/Cdk1;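 also: fluorescence polarization read after equilibration at room temperature, with IC50 taken from serially diluted dose-response curves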
T2 construct: purchased Eurofins, discovery 14-450

CyclinE1/CDK2 = target: T3, CyclinE1/CDK2 (Homo sapiens, UniProt P24864); assay: Fluorescence Polarization (FP) competitive binding assay, Cyclin E1/Cdk2;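 also: readings taken after two-hour equilibration at room temperature in HEPES buffer with NaCl, DTT, NP-40 and BSA, IC50 fitted from eight-concentration serial dilution series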
T3 construct: purchased Eurofins, discovery 14-475

WI-38 cells = assay: MTT proliferation assay, WI-38; format: cell-based; settings: 3 days compound exposure, 1:3 serial dilution starting at 10 μM;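 also: Eight- or ten-point dilution series, with exposure length chosen to span about three to four cell doublings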
NCI-H1048 cells = assay: MTT proliferation assay, NCI-H1048; format: cell-based; settings: 5 days compound exposure, 1:3 serial dilution starting at 10 μM;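 also: Dose-response in 96-well plates over 8 or 10 concentration points, with exposure spanning 3-4 cell doublings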
OVCAR3 cells = assay: MTT proliferation assay, OVCAR3; format: cell-based; settings: 5 days compound exposure, 1:3 serial dilution starting at 10 μM;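 also: compound given as an 8- or 10-point series, one day after plating, with exposure covering roughly 3-4 cell doublings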
[1] = 8 nM Cyclin A2/Cdk2, 2 nM FAM probe, average of 2-3 independent experiments, read-out: Cyclin A FP IC50
[2] = 10 nM Cyclin B1/Cdk1, 2 nM FAM probe; average of 2-3 independent experiments; read-out: Cyclin B FP IC50
[3] = 10 nM Cyclin E1/Cdk2, 2 nM FAM probe, average of 2-3 independent experiments, read-out: Cyclin E FP IC50
[4] = read-out: Cyclin B FP IC50; 10 nM Cyclin B1/Cdk1, 2 nM FAM probe; average of 2-3 independent experiments

SMILES	pIC50 (CyclinA2/CDK2; [1])	pIC50 (CyclinB1/CDK1; [2])	pIC50 (CyclinE1/CDK2; [3])	GI50 (WI-38 cells)	GI50 (NCI-H1048 cells)	GI50 (OVCAR3 cells)	pIC50 (CyclinA2/CDK2)	pIC50 (CyclinB1/CDK1; [4])	pIC50 (CyclinE1/CDK2)
CC(C)C[C@@H]1NC(=O)[C@@H](N(C)C(=O)[C@@H](NC(=O)[C@@H]2C[C@@H](F)CN2C(=O)C2(C(F)(F)F)CC(F)(F)C2)C2CC2)CCCCCCCN(C)C(=O)[C@H](Cc2cc(Cl)ccc2-c2ccc([C@@H]3CCCCN3C)cc2)N(C)C1=O [Example 417] ({cBuCO(3,3-F2-1-CF3)}-[Pro(trans-4-F)][Gly(cPr)][NMehhhLys(Me)]L[X95]; lactam 3-C)	7.52	7.70	5.58	1160 nM	10 nM	10 nM			
Cc1c(-c2ccc(Cl)cc2C[C@H]2C(=O)N(C)CCCCCCC[C@H](N(C)C(=O)[C@@H](NC(=O)[C@@H]3C[C@@H](F)CN3C(=O)C3(C(F)(F)F)CC(F)(F)C3)C3CC3)C(=O)N[C@@H](CC(C)C)C(=O)N2C)cnn1C [Example 234] ({cBuCO(3,3-F2-1-CF3)}-[Pro(trans-4-F)][Gly(cPr)][NMehhhLys(Me)]L[X67]; lactam 3-C)				10700 nM	10 nM	10 nM	7.52	7.70	6.08
Cc1cc(-c2ccc(Cl)cc2C[C@H]2C(=O)N(C)CCCCCCC[C@H](N(C)C(=O)[C@@H](NC(=O)[C@@H]3C[C@@H](F)CN3C(=O)C3(C(F)(F)F)CC(F)(F)C3)C3CC3)C(=O)N[C@@H](CC(C)C)C(=O)N2C)n(C)n1 [Example 235] ({cBuCO(3,3-F2-1-CF3)}-[Pro(trans-4-F)][Gly(cPr)][NMehhhLys(Me)]L[X113]; lactam 3-C)				13200 nM	100 nM	90 nM	6.85	7.70	5.22
CC(C)C[C@@H]1NC(=O)[C@@H](N(C)C(=O)[C@@H](NC(=O)[C@@H]2C[C@@H](F)CN2C(=O)C2(C(F)(F)F)CCC2)C2CC2)CC=CCCCCN(C)C(=O)[C@H](Cc2cc(Cl)ccc2-c2cnn(C3CC3)c2)N(C)C1=O [Example 81]	7.40	7.70	6.52	4300 nM	40 nM	50 nM			
CC(C)C[C@@H]1NC(=O)[C@@H](N(C)C(=O)[C@@H](NC(=O)[C@@H]2C[C@@H](F)CN2C(=O)C2(C(F)(F)F)CC(F)(F)C2)C2CC2)CCCCCCCN(C)C(=O)[C@H](Cc2cc(Cl)ccc2-c2ccc(OC3CCN(C)CC3)cc2)N(C)C1=O [Example 371] ({cBuCO(3,3-F2-1-CF3)}-[Pro(trans-4-F)][Gly(cPr)][NMehhhLys(Me)]L[X103]; lactam 3-C)	7.70	7.70	6.04	1440 nM	10 nM	10 nM			
CC(C)C[C@@H]1NC(=O)[C@@H](N(C)C(=O)[C@@H](NC(=O)[C@@H]2C[C@@H](F)CN2C(=O)C2(C(F)(F)F)CC(F)(F)C2)C2CC2)CCCCCCCN(C)C(=O)[C@H](Cc2cc(Cl)ccc2-c2cnn(CCN3CCOCC3)c2)N(C)C1=O [Example 256] ({cBuCO(3,3-F2-1-CF3)}-[Pro(trans-4-F)][Gly(cPr)][NMehhhLys(Me)]L[X55]; lactam 3-C)	7.52	7.70	6.32	13200 nM	10 nM	10 nM			
CC(C)C[C@@H]1NC(=O)[C@@H](N(C)C(=O)[C@@H](NC(=O)[C@@H]2C[C@@H](F)CN2C(=O)C2(C(F)(F)F)CC(F)(F)C2)C2CC2)CC=CCCCCN(C)C(=O)[C@H](Cc2cc(F)ccc2-c2cnn(C3CCC3)c2)N(C)C1=O [Example 88]	7.30	7.70	6.70	7640 nM	30 nM	30 nM			
